From patent US11414379B2, “SPAK kinase inhibitors as neuroprotective agents” (United States Government as represented by the Department …, priority 2018, dated 2022)

Key:
[1] = tested on: humans; details: in vivo, 25 mg/kg; cited from earlier work
[2] = tested on: Ang II-mediated hypertensive mice, pdMCAO; test: Infarct volume and hemispheric swelling after pdMCAO in Ang II-infused mice; format: in vivo, mouse; details: Ang II-infused mice (male or female); 2.5 mg/kg i.p. at 3 and 8 hrs after pdMCAO; 24 hrs; vs Veh
Description: C57BL/6J mice received subcutaneous (s.c.) infusion of either saline or AngII via osmotic minipumps (model 1004, Alzet) at a rate of 1000 ng/kg/min for 14 days. BP was measured in awake mice by a tail-cuff method (Kent Scientific) as described previously (Huang et al. (2019) Stroke. 50:1021-1025).
Saline-infused control and Ang II-mediated HTN mice were subsequently underwent permanent occlusion of the distal branches of the middle cerebral artery (pdMCAO) as described previously (Huang et al. (2019) Stroke. 50:1021-1025). Under isoflurane anesthesia, a skin incision at the midline of the neck was made and the left CCA was exposed and occluded by ligation and the skin was sutured. Another skin incision (1 cm) was made between the left eye and the ear using fine operation scissors. The temporal muscle was identified and detached from the skull in its apical and dorsal part without totally removing the muscle by the forceps. The MCA below the transparent skull in the rostral part of the temporal area, dorsal to the retro-orbital sinus was identified. If the MCA bifurcation was not visible (due to an anatomical normal variation), the most rostral vessel was identified. […] The artery, proximal and distal to the MCA bifurcation, was coagulated with the electrocoagulation forceps (in a bipolar mode at 7 W). […] The animal was placed in a cage and monitored for recovery from anesthesia. […]

[3] = tested on: rats post-IVH (CSF hypersecretion); test: Rate of CSF production, post-hemorrhagic hydrocephalus model; format: in vivo, rat; details: ICV treatment for 48 hr
Description: All animal experiments were approved by the Institutional Animal Care and Use Committee (IACUC) of the Yale University, and in accordance with the guidelines and regulations in the NIH Guide for the Care and Use of Laboratory Animals. Male Wistar rats (Harlan, Indianapolis, Ind., USA), age 8 weeks (220-230 g), were anesthetized (60 mg/kg ketamine plus 7.5 mg/kg xylazine, IP) and allowed to breathe room air spontaneously. Body temperature was maintained at 37±1° C. (Harvard Apparatus, Holliston, Mass., USA) throughout the course of the experiments. PHH was modeled using a modified protocol based on previously described methods (Karimy et al. (2015) Nature medicine 23: 997-1003; Simard et al. (2011) Transl Stroke Res 2: 227-231). […]
Rates of CSF production were measured using the method we recently published (Karimy et al. (2015) Nature medicine 23: 997-1003). […] The volume (V) of CSF that forms at a given timepoint is calculated as: V (mm^3)=π·r^2·d, where r is the radius of the capillary tube and d is the distance CSF traveled within the capillary. The rate of CSF formation (μL/min) can be calculated from the slope of the volume-time relationship. A baseline rate of spontaneous CSF secretion (no drug infusion) was calculated over 30 minutes prior to drug infusion, then compared to the calculated rate of CSF formation following 30 minutes of ZT-1a infusion. […]

[4] = tested on: pNKCC1; test: IVH-induced phosphorylation in rat choroid plexus, ICV delivery; format: in vivo; details: 48 hrs post-IVH, n=3

SMILES	adverse effects in humans [1]	decrease of hemispheric swelling [2] [%]	decrease of infarct volume [2] [%]	decrease of post-IVH CSF hypersecretion [3] [%]	reduction of IVH-induced expression of pNKCC1 [4] [%]
Cc1cc(C(C#N)c2ccc(Cl)cc2)c(Cl)cc1NC(=O)c1cc(I)cc(I)c1O (centres unmarked) [Closantel]	weakness, visual impairment and blindness	–	–	–	–
Cc1cc(C(C#N)c2ccc(Cl)cc2)c(Cl)cc1NC(=O)c1cc(Cl)ccc1O (centres unmarked) [ZT-1a, 5-chloro-N-(5-chloro-4-((4-chlorophenyl)(cyano)methyl)-2-methylphenyl)-2-hydroxy-benzamide]	–	~50	~50	~57±6.2	69±4.3
